The text below walks through data of ChEMBL document CHEMBL1201862, “PubChem BioAssay data set” (2004).

Calls of active or inactive are those of the source.

Assay [1] in a line: A cytotoxicity screen of small molecule inhibitors of the PhoP region in Salmonella typhi identified in the primary screen. [Related pubchem assays: 1850, 1864, 1985 ]. Type of assay: functional.
Assay [2] in a line: Trypanosoma cruzi growth suppression in host cells – NIH3T3 host cells, beta-gal luminescence, confirmation (AID 2044).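 Further: intracellular parasites grown in NIH/3T3 mouse fibroblasts as host cells; luminescent beta-galactosidase reporter signal from transgenic T. cruzi replicating inside host cells; inhibitors lower the luminescence signal.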 Type of assay: functional, cell-based.
Assay [3] is described as follows: microbe, parasite or virus in culture. Type of assay: functional. To be noted: Mycobacterium tuberculosis.
Assay [4] is described as follows: NIH3T3 cell viability loss – ATP luminescence, mouse fibroblasts, counter-screen, dose response (AID 2010).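 Further: cells exposed to compound for about 90 hours before reading.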 Type of assay: functional, cell-based.
Assay [5] in a line: viability loss in THP-1 monocytes – THP-1 cells, cytotoxicity control for Vif-APOBEC3G degradation inhibitor project, dose response (AID 1117359). Type of assay: functional. To be noted: THP-1.
Assay [6] can be described thus: luciferase reporter signal suppression in cells – H4 neuroglioma cells, luminescence, dose response (AID 1990). Type of assay: functional, cell-based.
Assay [7] can be described thus: Luminescence Cell-Based Dose Response HTS to Identify Inhibitors of 5'UTR Stem-Loop Driven Prion Protein mRNA Translation in H4 Neuroglioblastoma Cells. [Related pubchem assays: 1827 (Project Summary), 1813 (Primary HTS)]. Type of assay: functional.
A short description of assay [8]: alpha-synuclein stem-loop luciferase translation blockers – H4 neuroglioma cells, luminescence, confirmation (AID 1988). Type of assay: functional, cell-based.
Assay [9] can be described thus: HEK-293T cell viability reduction – luminescence, B-cell screen hits, cytotoxicity control for BCR NF-kB inhibitor project, dose response (AID 489021).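 Further: HEK-293T cells carrying an NF-kB luciferase reporter; cells exposed to compound for about 14 hours before viability readout.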 Type of assay: functional, cell-based.
Assay [10] has as its system BJ. Kind of assay: BJ-TERT fibroblast viability loss – cell-based, RAS-independent, luminescence, dose response (AID 1933). Type of assay: functional. To be noted: Homo sapiens.
Assay [11] has as its system BJ. The assay is described as follows: cells. Type of assay: functional, cell-based. To be noted: Homo sapiens.
The test system of assay [12] is BJ. Kind of assay: BJ-TERT-LT-ST fibroblast viability loss – cell-based, RAS-independent, luminescence, dose response (AID 1935).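 Further: BJ fibroblasts immortalized with TERT plus LT and ST oncogenes.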 Type of assay: functional. To be noted: Homo sapiens.
Assay [13] is described as follows: DRD fibroblast viability loss – cell-based, non-viral oncogenic, luminescence, dose response (AID 1934). Type of assay: functional. To be noted: Homo sapiens.
The target in assay [14] is Peroxisome proliferator-activated receptor gamma/Nuclear receptor coactivator 2 (Homo sapiens, UniProt P37231). Type of assay: functional.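 Further: agonist potency for raising coactivator recruitment to the receptor.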
For assay [15], the target named is Peroxisome proliferator-activated receptor gamma/Nuclear receptor coactivator 1 (Homo sapiens, UniProt P37231). Type of assay: functional.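 Further: agonist potency as compounds enhance coactivator SRC-1 recruitment to PPARgamma.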
For assay [16], the target named is Peroxisome proliferator-activated receptor gamma/Nuclear receptor coactivator 3 (Homo sapiens, UniProt P37231). Type of assay: functional.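 Further: agonist potency for raising coactivator recruitment to the receptor.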
For assay [17], the target named is T1, Calpain-2 catalytic subunit (Sus scrofa, UniProt P43367).
T1 sequence (P43367 whole entry): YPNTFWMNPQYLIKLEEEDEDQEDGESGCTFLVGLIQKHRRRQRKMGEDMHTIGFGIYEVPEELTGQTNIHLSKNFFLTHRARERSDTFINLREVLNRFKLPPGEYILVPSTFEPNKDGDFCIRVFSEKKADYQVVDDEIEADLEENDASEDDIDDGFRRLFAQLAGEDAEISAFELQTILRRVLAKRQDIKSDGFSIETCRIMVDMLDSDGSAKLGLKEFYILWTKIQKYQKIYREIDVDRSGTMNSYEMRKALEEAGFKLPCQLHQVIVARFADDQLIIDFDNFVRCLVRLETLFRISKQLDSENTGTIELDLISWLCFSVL
The assay is described as follows: m-calpain protease blockers, concentration series – biochemical, fluorogenic peptide substrate, dose response (AID 1420). Type of assay: functional.

For assay [18], the target named is T2, Short transient receptor potential channel 4 (Mus musculus, UniProt Q9QUQ5).
T2 sequence (Q9QUQ5 whole entry): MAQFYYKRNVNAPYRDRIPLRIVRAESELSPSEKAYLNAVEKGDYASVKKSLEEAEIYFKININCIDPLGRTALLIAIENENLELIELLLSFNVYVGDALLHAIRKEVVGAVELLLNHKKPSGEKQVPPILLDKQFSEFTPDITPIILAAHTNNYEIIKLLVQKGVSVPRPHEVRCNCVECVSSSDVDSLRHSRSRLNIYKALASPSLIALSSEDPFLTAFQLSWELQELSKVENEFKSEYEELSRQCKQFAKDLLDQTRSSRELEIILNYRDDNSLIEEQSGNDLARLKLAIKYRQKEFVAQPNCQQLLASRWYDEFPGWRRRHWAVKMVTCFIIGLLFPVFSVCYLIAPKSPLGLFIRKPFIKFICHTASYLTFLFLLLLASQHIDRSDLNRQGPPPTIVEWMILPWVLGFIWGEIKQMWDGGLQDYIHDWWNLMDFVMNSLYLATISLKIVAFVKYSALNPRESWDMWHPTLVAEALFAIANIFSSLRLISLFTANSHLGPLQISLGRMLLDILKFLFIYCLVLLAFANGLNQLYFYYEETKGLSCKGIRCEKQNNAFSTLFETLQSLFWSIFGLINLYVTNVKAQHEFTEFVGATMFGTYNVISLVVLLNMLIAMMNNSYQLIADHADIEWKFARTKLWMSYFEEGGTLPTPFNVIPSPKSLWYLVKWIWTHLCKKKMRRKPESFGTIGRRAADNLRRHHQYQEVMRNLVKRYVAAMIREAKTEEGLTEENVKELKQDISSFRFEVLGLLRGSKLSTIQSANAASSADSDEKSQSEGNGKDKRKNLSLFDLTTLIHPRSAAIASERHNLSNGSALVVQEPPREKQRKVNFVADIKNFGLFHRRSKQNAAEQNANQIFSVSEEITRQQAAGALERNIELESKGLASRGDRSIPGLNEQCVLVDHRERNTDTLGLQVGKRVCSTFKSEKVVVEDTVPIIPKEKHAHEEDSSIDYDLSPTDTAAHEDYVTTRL
Kind of assay: block of DAMGO-driven TRPC4 calcium entry – cell-based, HEK293 TRPC4/mu-opioid, Fluo-4 calcium, dose response (AID 434942).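 Further: potency of inhibitors blocking the TRPC4 calcium response.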 Type of assay: functional.

The nature of assay [19]: P. falciparum Dd2 growth inhibitors, dose response, SYBR Green, cherry-picked samples (AID 1159567). Type of assay: functional, cell-based.
Assay [20] is described as follows: toxicity to human hepatoma HepG2 cells – cell-based, cherry-picked samples, cytotoxicity control, dose response (AID 1159577). Type of assay: functional.
The target of assay [21] is T3, Rac GTPase-activating protein 1 (Homo sapiens, UniProt Q9H0H5).
T3 sequence (Q9H0H5 whole entry): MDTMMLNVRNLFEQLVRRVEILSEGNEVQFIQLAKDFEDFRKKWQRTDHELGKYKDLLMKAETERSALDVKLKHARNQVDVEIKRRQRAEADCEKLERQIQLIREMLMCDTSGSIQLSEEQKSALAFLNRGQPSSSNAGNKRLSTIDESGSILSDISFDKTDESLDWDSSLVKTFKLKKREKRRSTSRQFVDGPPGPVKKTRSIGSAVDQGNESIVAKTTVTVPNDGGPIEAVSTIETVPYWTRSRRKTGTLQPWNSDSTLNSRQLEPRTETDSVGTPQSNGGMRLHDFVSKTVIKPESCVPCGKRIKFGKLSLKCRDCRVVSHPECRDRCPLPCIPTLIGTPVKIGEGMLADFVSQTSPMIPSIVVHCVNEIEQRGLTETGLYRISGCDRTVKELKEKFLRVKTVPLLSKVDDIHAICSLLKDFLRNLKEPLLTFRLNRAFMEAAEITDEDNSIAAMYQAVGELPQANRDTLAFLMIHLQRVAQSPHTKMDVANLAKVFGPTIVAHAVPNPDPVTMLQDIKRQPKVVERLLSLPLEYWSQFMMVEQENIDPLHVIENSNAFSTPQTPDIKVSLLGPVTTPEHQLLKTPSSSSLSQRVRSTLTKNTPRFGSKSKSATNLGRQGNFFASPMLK
Kind of assay: blockers of MgcRacGAP-driven Rac1 GTP hydrolysis – biochemical, ADP Hunter fluorescence, primary and confirmatory, confirmation (AID 624330). Type of assay: functional.

Another assay has as its target Cytochrome P450 2C19 (Homo sapiens, UniProt P33261). The assay is described as follows: Cytochrome panel assay with activity outcomes. Panel member name: p450-cyp2c19 Compounds with AC50 equal or less than 10 uM are considered active. Type of assay: functional. To be noted: read-out: AC50.
In another assay the target is Cytochrome P450 3A4 (Homo sapiens, UniProt P08684).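 Further: CYP3A4 tested as one member of a cytochrome P450 panel screen.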
Assay [22] is described as follows: HEK-293T viability loss after treatment – luminescence, T-cell screen hits, cytotoxicity control for TCR NF-kB inhibitor project, dose response (AID 489026).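 Further: cells exposed to compound about 14 hours before the viability readout.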 Type of assay: functional, cell-based.

Sequence of Cytochrome P450 3A4 (P08684 whole entry): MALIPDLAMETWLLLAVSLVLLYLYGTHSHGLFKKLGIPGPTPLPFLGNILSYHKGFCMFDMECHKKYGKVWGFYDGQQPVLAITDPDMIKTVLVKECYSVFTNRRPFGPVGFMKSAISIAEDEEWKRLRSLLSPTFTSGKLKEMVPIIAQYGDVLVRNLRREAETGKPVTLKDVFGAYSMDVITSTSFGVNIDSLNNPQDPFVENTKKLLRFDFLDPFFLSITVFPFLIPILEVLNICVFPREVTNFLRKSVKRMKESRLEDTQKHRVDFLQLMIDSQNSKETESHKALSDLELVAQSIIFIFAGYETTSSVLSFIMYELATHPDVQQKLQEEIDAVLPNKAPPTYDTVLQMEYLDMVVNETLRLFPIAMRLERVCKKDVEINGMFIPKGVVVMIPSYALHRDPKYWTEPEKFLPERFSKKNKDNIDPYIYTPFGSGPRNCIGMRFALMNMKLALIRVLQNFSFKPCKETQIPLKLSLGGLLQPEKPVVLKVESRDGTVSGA
Sequence of Peroxisome proliferator-activated receptor gamma/Nuclear receptor coactivator 3 (P37231 whole entry): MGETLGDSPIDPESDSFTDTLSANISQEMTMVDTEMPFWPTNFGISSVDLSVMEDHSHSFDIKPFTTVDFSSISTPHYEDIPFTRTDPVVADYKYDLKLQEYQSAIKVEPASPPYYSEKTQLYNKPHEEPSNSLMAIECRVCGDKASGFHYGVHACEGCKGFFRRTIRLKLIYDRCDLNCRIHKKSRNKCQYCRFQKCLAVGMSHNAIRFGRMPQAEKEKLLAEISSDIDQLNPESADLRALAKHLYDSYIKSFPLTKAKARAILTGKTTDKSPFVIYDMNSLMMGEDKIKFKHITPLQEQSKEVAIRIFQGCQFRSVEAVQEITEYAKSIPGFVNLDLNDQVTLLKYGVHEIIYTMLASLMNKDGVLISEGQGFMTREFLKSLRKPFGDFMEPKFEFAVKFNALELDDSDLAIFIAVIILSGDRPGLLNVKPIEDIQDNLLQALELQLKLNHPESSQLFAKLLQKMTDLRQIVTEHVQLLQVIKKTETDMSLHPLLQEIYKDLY
Sequence of Peroxisome proliferator-activated receptor gamma/Nuclear receptor coactivator 3 (Q9Y6Q9 whole entry, further chain): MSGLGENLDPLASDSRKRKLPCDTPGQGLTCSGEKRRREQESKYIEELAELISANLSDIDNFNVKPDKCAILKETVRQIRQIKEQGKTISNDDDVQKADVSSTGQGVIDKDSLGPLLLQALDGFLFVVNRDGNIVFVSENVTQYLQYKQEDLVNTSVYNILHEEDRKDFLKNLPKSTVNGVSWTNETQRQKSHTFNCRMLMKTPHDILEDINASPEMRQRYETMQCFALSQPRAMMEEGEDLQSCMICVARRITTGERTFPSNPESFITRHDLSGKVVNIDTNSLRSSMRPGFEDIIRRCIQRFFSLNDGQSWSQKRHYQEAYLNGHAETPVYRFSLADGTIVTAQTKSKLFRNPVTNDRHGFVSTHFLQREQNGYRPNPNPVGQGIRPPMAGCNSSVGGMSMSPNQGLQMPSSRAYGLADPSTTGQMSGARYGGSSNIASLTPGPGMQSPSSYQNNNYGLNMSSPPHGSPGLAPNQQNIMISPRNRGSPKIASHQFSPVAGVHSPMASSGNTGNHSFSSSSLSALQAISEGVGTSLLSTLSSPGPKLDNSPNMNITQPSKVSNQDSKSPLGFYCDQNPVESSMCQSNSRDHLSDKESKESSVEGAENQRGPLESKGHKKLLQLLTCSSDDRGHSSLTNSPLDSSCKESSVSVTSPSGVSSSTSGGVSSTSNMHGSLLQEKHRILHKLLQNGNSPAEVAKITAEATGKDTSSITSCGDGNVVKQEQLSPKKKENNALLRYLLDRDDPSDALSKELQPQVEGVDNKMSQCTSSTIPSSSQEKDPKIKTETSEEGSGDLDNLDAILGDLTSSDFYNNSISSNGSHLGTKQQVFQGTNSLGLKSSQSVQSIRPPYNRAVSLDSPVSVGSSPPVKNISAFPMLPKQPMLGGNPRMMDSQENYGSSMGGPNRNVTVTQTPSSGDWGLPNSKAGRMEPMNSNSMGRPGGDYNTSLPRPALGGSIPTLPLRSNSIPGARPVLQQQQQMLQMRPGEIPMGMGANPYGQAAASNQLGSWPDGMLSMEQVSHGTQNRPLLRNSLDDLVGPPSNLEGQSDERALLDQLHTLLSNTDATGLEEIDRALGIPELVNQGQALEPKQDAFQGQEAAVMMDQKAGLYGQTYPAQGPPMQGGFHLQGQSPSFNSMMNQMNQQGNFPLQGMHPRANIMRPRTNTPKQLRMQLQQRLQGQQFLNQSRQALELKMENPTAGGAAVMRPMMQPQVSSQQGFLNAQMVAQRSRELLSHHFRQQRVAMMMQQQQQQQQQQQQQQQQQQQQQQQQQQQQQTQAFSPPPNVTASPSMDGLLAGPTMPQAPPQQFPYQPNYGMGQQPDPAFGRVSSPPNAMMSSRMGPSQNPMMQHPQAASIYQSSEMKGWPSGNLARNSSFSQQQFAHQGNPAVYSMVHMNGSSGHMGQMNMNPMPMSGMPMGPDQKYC
Sequence of Peroxisome proliferator-activated receptor gamma/Nuclear receptor coactivator 2 (P37231 whole entry): as the sequence (P37231 whole entry) above
Sequence of Peroxisome proliferator-activated receptor gamma/Nuclear receptor coactivator 2 (Q15596 whole entry, further chain): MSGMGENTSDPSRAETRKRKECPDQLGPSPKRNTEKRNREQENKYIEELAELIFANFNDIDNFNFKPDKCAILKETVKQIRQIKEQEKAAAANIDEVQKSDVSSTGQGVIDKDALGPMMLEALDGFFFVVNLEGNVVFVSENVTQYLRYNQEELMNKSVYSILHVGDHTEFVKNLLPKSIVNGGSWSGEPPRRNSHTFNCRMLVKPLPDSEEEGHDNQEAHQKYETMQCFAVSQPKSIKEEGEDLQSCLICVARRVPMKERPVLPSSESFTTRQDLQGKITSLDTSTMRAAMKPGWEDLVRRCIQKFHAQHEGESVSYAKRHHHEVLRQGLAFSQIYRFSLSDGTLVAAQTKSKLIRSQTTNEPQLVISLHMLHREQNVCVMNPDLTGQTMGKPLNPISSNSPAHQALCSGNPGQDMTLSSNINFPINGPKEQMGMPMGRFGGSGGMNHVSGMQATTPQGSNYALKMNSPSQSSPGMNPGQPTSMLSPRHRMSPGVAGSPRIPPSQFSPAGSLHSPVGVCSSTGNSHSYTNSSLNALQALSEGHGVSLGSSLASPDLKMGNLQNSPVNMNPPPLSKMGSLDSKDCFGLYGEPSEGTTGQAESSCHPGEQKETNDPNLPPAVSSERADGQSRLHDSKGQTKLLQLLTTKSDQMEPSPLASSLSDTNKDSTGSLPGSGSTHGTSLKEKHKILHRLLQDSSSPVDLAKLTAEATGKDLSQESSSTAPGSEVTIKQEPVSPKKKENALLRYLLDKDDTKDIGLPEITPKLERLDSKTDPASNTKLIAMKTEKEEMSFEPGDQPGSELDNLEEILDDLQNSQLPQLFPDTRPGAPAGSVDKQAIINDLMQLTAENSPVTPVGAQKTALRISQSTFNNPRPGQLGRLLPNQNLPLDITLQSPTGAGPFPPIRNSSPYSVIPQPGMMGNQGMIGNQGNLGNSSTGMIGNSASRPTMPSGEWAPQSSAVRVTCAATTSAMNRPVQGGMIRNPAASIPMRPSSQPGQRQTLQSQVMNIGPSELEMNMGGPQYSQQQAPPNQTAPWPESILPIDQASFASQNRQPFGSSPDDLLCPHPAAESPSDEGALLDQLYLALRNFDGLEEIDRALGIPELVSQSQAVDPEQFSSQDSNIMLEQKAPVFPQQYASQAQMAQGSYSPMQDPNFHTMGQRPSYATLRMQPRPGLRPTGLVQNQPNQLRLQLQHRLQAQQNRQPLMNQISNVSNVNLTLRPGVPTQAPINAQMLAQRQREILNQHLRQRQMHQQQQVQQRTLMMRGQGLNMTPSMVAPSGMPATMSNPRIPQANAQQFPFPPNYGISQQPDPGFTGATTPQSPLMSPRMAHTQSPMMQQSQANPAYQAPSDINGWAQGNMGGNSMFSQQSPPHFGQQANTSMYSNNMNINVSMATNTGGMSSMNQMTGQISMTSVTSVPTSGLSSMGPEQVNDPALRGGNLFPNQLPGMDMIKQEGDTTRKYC
Sequence of Cytochrome P450 2C19 (P33261 whole entry): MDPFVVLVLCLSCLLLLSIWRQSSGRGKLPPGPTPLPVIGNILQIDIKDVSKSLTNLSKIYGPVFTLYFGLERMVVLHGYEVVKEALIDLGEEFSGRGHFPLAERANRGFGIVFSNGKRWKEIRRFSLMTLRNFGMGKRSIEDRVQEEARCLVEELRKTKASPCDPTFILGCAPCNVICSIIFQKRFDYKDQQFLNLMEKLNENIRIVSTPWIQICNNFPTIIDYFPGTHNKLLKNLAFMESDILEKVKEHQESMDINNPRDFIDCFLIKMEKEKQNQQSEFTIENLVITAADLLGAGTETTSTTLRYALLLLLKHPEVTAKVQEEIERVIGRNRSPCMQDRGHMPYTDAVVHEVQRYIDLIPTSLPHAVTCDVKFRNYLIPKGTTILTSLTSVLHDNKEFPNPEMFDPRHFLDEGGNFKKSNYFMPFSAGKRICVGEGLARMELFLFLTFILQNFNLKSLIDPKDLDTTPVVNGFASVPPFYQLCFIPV

In the case of `COC(=O)c1sccc1N=C(S)NCc1ccc(Cl)cc1`, the EC50 in [1] was > 50 µM (active).
Turning to `Cc1c(CN2CCC(CO)(Cc3cccc(C(F)(F)F)c3)CC2)c2ccccc2n1C`, the EC50 is 0.969 µM (active) in assay [2] and > 60 µM (not active) in [4]. Moreover, the CC50 is 18.1 µM (active) in assay [3] and 9.2 µM (active) in [5].
As for `Cc1ccc(/C=C2\SC(=S)N(CCCC(=O)Nc3cc(C)on3)C2=O)cc1`, the EC50 in assay [6] was 15.3 µM (active); in assay [7] it was 51.7 µM (active); in assay [8] it was 14.6 µM (active). In assay [9], the IC50 was > 80 µM (inactive).
In the case of `CNC(=O)CSc1nc2nn(-c3ccccc3)c(=O)c-2c2n1CCCCC2`, the IC50 in assay [9] was > 80 µM (inactive).
As for `Cc1nc2nc(COc3ccccc3)nn2c(C)c1Cl`, the EC50 in [1] is > 50 µM (active).
`CC(CCc1ccccc1)NC(=O)COC(=O)c1ccc(NC(=O)CC#N)cc1` (centres undefined): the EC50 was > 150 µM (not active) with BJ [10], > 150 µM (not active) in the assay on BJ [11], > 150 µM (inconclusive) in the assay with BJ [12] and > 150 µM (not active) in assay [13].
Regarding `CCCCC(CC)c1nnc(NC(=O)c2cccs2)s1` (centres undefined), the concentration giving a half-maximal response (EC50) is > 79.4 µM (not active) in [14], > 79.4 µM (not active) in assay [15], > 79.4 µM (not active) in assay [16] and 5.31 µM (active) in [18]. Also, the IC50 in [17] was 8.06 µM (not active).
Regarding `O=C(COc1ccc(F)cc1)c1c(O)cc(O)cc1O`, the EC50 in [18] is 3.35 µM (active).
Regarding `Cc1cccc(-c2ccc([C@H]3[C@H]4CN(CCC(F)(F)F)CCCCN4[C@H]3CO)cc2)c1`, the AC50 in assay [19] was 1.08 µM (active); in assay [20], 9.1 µM (active).
For the compound `CCC(=O)N(Cc1cc2cc(OC)ccc2nc1O)c1ccc(C)cc1C`, the EC50 in assay [1] is > 50 µM (active).
For the compound `Cc1cc(C)c(NC(=O)COC(=O)Cc2ccsc2)c(C)c1`, the IC50 in assay [17] is > 50 µM (not active).
As to `N=c1sc2c(n1Cc1ccccc1)CCCC2`, in [1], the EC50 is > 50 µM (active).
`S=C(Nc1ccccc1)Nc1cc(Cl)ccc1Oc1ccccc1`: the EC50 in assay [18] was 4.73 µM (active).
As for `C=CCSc1nnc2n(-c3ccccc3OC)c(=O)c3c4c(sc3n12)CCC4`, the EC50 in assay [18] was 4.73 µM (active).
For the compound `CCCc1nc(SCC(=O)c2ccccc2)c2c(=O)n(C)c(=O)n(C)c2n1`, the IC50 in assay [17] is 7.89 µM (active).
Take `O=C1/C(=C/c2ccco2)SC(=S)N1C1CCS(=O)(=O)C1` (centres undefined): in assay [5], the CC50 was > 40 µM (active).
`COc1ccc2cc(C(=O)Nc3ccc(O)cc3)sc(=O)c2c1OC`: in [21], the IC50 is 24.8 µM (active). Moreover, the CC50 in assay [5] was 25 µM (active).
With `Cn1/c(=N\C(=O)CCl)sc2ccccc21`, the EC50 in assay [2] was 0.973 µM (active); in assay [4] it was < 6 µM (inconclusive). Also, the IC50 in assay [9] is > 80 µM (inactive). The AC50 on Cytochrome P450 2C19 was 20 µM (inconclusive); on Cytochrome P450 3A4 it was 15.8 µM (inconclusive).
Turning to `N=c1ccn2c(n1)O[C@H]1[C@H](O)[C@@H](CO)O[C@H]12`, in [9], the IC50 is > 80 µM (inactive).
Regarding `CC(=O)Nc1ccc(S(=O)(=O)N2c3ccc(F)cc3CCC2C)cc1` (centres undefined), the EC50 in the assay on BJ [10] is 13.5 µM (active); in the assay with BJ [11], 92.3 µM (active); in the assay on BJ [12] it was 16 µM (active); in assay [13], 16 µM (active). The IC50 in [22] was > 80 µM (inactive).
Turning to `CCOCCCNc1ccc(N2C(=O)C3CCCCC3C2=O)cc1[N+](=O)[O-]` (centres undefined), the IC50 in [17] was 9.18 µM (active).
